From patent publication US9932479B2, “Dyes and compositions, and processes for using same in analysis of protein aggregation and other applications” (Enzo Biochem, Inc., priority 2009, dated 2018)

How the values were obtained:
[1] = target: T1, Hen Egg White Lysozyme (Gallus gallus, UniProt P00698); assay: Inhibition of Lysozyme aggregation at pH 12.2, S-25/Tol3 readout; format: biochemical; settings: 510 μM Chitotriose, 300 μM Lysozyme, aggregation induced at pH 12.2
T1 construct: Hen egg white lysozyme was solubilized in 10 mM HCl; from tissue; host or cells: hen egg white
T1 sequence (P00698 19-147): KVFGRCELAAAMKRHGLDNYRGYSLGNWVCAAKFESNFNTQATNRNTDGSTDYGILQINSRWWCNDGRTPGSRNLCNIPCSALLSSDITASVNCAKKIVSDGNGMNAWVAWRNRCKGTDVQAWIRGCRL
Experimental: Hen egg white Lysozyme (300 μM) was incubated with or without N,N′,N″-triacetyl-chitotriose (Chitotriose, 510 μM) in 10 mM potassium phosphate, pH 7.3 for 16 hours. Aggregation was induced by 3.5 fold dilution into 50 mM potassium phosphate, pH 12.2. Aggregation was followed by removing an aliquot of the protein and diluting such that the final composition was 20 μM protein, 50 mM potassium phosphate, pH 7, 3 μM S-25 and 3 μM Tol3. Protein was incubated with dye for 15 minutes prior to determining the fluorescence using a BioTek Synergy Mx plate scanner, with excitation setting at 515 nm and emission setting at 603 nm, both with a 9 nm slit-width. The zero time point was taken before dilution to pH 12.2. Readings were taken in at least triplicate in a Greiner μClear black, clear bottom 96-well microplate. Aggregation was followed for several weeks at room temperature (19°-23° C.).

[2] = Fluorescence excitation and emission spectra of dye freely dissolved in buffer; format: physicochemical; settings: 50 mM Tris-HCl, pH 7.8, 10 μM dye, room temperature
Experimental: (§1) Fluorescent readings were carried out in 50 mM Tris-HCl, pH 7.8 using 10 μM dye. […] Fluorescence excitation and emission spectra were collected on a Cary Eclipse fluorescence spectrophotometer (Varian, Australia). Fluorescence spectra were measured with excitation and emission slit widths set to 5 nm, and at a constant PMT voltage. Spectroscopic measurements were performed in standard quartz cells. All measurements were made at the respective excitation maxima of each dye. All measurements were carried out at room temperature.

[3] = target: T2, recombinant human alpha-synuclein (ASN) aggregate (Homo sapiens, UniProt P37840); assay: Fluorescence excitation and emission spectra of dye in the presence of aggregated alpha-synuclein; format: binding; settings: 1 μM aggregated ASN, 50 mM Tris-HCl, pH 7.8, 10 μM dye
T2 construct: purchased Sigma-Aldrich
Experimental: as §1

[4] = system: goat-anti-mouse IgG aggregate; assay: Fluorescence enhancement (aggregate/native IgG) in the presence of excipients; format: binding; settings: for Fluorescence enhancement (aggregate/native IgG): 2.8 μM IgG, 0.625 μM dye; for Fluorescence enhancement (aggregate/native IgG), Average: Average over all excipient conditions
Experimental: IgG aggregate was prepared by adjusting 5.83 mg/ml of purified goat-anti-mouse IgG (H&L, Pel Freez, Rogers, Ark.) to pH 2.7 using HCl and incubating at 22° C. for 24 hours. The assay was performed using 2.8 μM IgG, either native or aggregated, and a dye concentration of 0.625 μM. The protein and dye were mixed together for 15 minutes at 22° C., then this was further incubated in the presence of the excipients shown in the table. The fluorescence intensity of S-25, Tol3 and Y2150 were determined with a FLUOstar OPTIMA plate reader (BMG LABTECH) at excitation wavelength of 550 nm and emission wavelength of 610 nm; while the fluorescence intensity for Thioflavin-T was determined using a SpectraMAX GeminiXS (Molecular device, with Softmax Pro 7.0) using an excitation wavelength of 435 nm and emission wavelength of 495 nm. The fluorescence enhancement (aggregate/native IgG) is shown.

[5] = target: T3, β-lactoglobulin (BLG) (Bos taurus, UniProt P02754); assay: Thermal shift assay of BLG aggregation; format: binding; settings: BLG 4 or 16 mg/mL, heating 28° C. to 90° C.
T3 sequence (P02754 17-178): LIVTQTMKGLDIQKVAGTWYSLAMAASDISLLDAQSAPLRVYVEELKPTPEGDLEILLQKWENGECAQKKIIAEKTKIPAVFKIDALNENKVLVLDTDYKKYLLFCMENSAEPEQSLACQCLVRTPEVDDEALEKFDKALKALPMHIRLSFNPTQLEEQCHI
Experimental: A solution containing 4 or 16 mg/mL of β-lactoglobulin (BLG) and 2×SYPRO® Orange dye (Molecular Probes, supplied as 5000× with unknown concentration) or 4 μM TOL3 or 4 μM S25 was prepared using 1×PBS, pH 7.4 as the dilution buffer. This solution was then loaded into LightCycler® capillaries (20 μL, Roche Diagnostics GmbH). These capillaries were then mounted on the sample holder of a LightCycler® 480 Real-Time PCR System (Roche), programmed to heat from 28° C. to 90° C. at 3° C./min, followed by cooling down to 28° C. at the same rate. The thermal shift curves were achieved by plotting fluorescence intensity vs. temperature. After the heating cycle, protein aggregates were visually apparent.

[6] = system: Rabbit-anti-goat IgG; assay: Fluorescence response to unfolded versus aggregated IgG in 4.55 M urea; format: binding; settings: 6.67 μM Tol3
Experimental: (B) A solution containing aggregated IgG (formed as in Example 13 (B)) or monomeric IgG at 0.033 mg/mL, 4.55 M urea and 6.67 μM Tol3 was prepared and transferred into a microplate. After incubating at 4° C. degree for about 10 minutes, the fluorescence was recorded. Two control solutions without IgG, but with the same concentration of TOl3, were included, one including 4.55M urea, another without urea. From the previous chemical shift curve generated (seen in FIG. 16 (A)), 4.55 M urea is known to unfold approximately 60% of the IgG.

[7] = system: Rabbit-anti-goat IgG; assay: Chemical shift assay based on internal tryptophan fluorescence; format: biochemical; settings: 4.55 M urea; from chemical shift curve FIG. 16 (A)
Experimental: (A) Chemical shift assay based on internal tryptophan fluorescence: Rabbit-anti-goat IgG (Pel Freeze) in 1×PBS buffer of pH 7.4 was mixed with urea in 1×PBS to achieve a final IgG concentration of 0.25 mg/mL. After mixing on ice for 10 minutes, the fluorescence emission intensity at 330 nm was recorded by exciting at 280 nm using a MD-5020 fluorimeter (Phototechnology International). A chemical shift curve was plotted based on internal tryptophan fluorescence intensity at each given urea concentration. Urea denatures proteins but prevents them from aggregating.

Row | Dye freely dissolved in buffer: Emission wavelength [2] [nm] | Dye freely dissolved in buffer: Excitation wavelength [2] [nm] | In the presence of aggregate: Emission wavelength [3] [nm] | In the presence of aggregate: Excitation wavelength [3] [nm] | SMILES | Fluorescence enhancement (aggregate/native IgG) ([4]; Ammonium Sulfate, 10 mM) [fold] | Fluorescence enhancement (aggregate/native IgG) ([4]; Ammonium Sulfate, 100 mM) [fold] | Fluorescence enhancement (aggregate/native IgG) ([4]; Ammonium Sulfate, 300 mM) [fold] | Fluorescence enhancement (aggregate/native IgG) ([4]; Arginine, 200 mM) [fold] | Fluorescence enhancement (aggregate/native IgG) ([4]; Arginine, 500 mM) [fold] | Fluorescence enhancement (aggregate/native IgG) ([4]; Ascoric Acid, 1 mM) [fold] | Fluorescence enhancement (aggregate/native IgG), Average [4] [fold] | Fluorescence enhancement (aggregate/native IgG) ([4]; Calcium Chloride, 10 mM) [fold] | Fluorescence enhancement (aggregate/native IgG) ([4]; Calcium Chloride, 50 mM) [fold] | Fluorescence enhancement (aggregate/native IgG) ([4]; Calcium Chloride, 200 mM) [fold] | Fluorescence enhancement (aggregate/native IgG) ([4]; DTT, 1 mM) [fold] | Fluorescence enhancement (aggregate/native IgG) ([4]; Glycine, 0.5%) [fold] | Fluorescence enhancement (aggregate/native IgG) ([4]; Glycine, 2%) [fold] | Fluorescence enhancement (aggregate/native IgG) ([4]; Lactose, 100 mM) [fold] | Fluorescence enhancement (aggregate/native IgG) ([4]; Lactose, 300 mM) [fold] | Fluorescence enhancement (aggregate/native IgG) ([4]; Mannitol, 100 mM) [fold] | other results
1 | – | – | – | – | CC(=O)N[C@H]1[C@H](O[C@H]2[C@H](O)[C@@H](NC(C)=O)C(O)O[C@@H]2CO)O[C@H](CO)[C@@H](O[C@@H]2O[C@H](CO)[C@@H](O)[C@H](O)[C@H]2NC(C)=O)[C@@H]1O (stereo partly drawn) [Chitotriose, N,N′,N″-triacetyl-chitotriose] | – | – | – | – | – | – | – | – | – | – | – | – | – | – | – | – | Effect on Lysozyme aggregation [1]: inhibits Lysozyme aggregation
2 | 613 | 485 | 607 | 516 | CN(C)c1ccc(/C=C/c2cc[n+](CCCCCC[n+]3ccc(/C=C/c4ccc(N(C)C)cc4)cc3)cc2)cc1.CS(=O)(=O)[O-].CS(=O)(=O)[O-] [Dye S25] | 15.4 | 14.6 | 13.3 | 14.8 | 13.5 | 13.9 | 19.3 | 9.7 | 9.6 | 6.7 | 13.2 | 14.1 | 15.1 | 23.0 | 38.9 | 16.7 | Fluorescence enhancement (aggregate/native IgG) ([4]; Mannitol, 300 mM): 15.2 fold; Fluorescence enhancement (aggregate/native IgG) ([4]; Mannitol, 600 mM): 20.9 fold; Fluorescence enhancement (aggregate/native IgG) ([4]; Sodium Chloride, 10 mM): 14.0 fold; Fluorescence enhancement (aggregate/native IgG) ([4]; Sodium Chloride, 100 mM): 13.6 fold; Fluorescence enhancement (aggregate/native IgG) ([4]; Sodium Chloride, 1000 mM): 11.7 fold; Fluorescence enhancement (aggregate/native IgG) ([4]; Sorbitol, 100 mM): 16.4 fold; Fluorescence enhancement (aggregate/native IgG) ([4]; Sorbitol, 300 mM): 21.0 fold; Fluorescence enhancement (aggregate/native IgG) ([4]; Sorbitol, 600 mM): 25.4 fold; Fluorescence enhancement (aggregate/native IgG) ([4]; Trehalose, 100 mM): 17.8 fold; Fluorescence enhancement (aggregate/native IgG) ([4]; Trehalose, 300 mM): 32.1 fold; Fluorescence enhancement (aggregate/native IgG) ([4]; Trehalose, 600 mM): 30.1 fold; Fluorescence enhancement (aggregate/native IgG) ([4]; Tween 20, 0.01%): 70.8 fold; Fluorescence enhancement (aggregate/native IgG) ([4]; Tween 20, 0.2%): 26.7 fold; Fluorescence enhancement (aggregate/native IgG) ([4]; X100, 0.01%): 19.2 fold; Fluorescence enhancement (aggregate/native IgG) ([4]; X100, 0.2%): 7.3 fold; Fluorescence enhancement (aggregate/native IgG) ([4]; X100, 1%): 2.9 fold; Detection of BLG thermal shift (melting) peak [5]: able to detect BLG thermal shift peaks
3 | 611 | 471 | 603 | 511 | Cc1c[n+](CCCCCCCCCC[n+]2ccc(/C=C/c3ccc(N(C)C)cc3)c(C)c2)ccc1/C=C/c1ccc(N(C)C)cc1 [TOL3] | 15.6 | 13.4 | 16.9 | 18.6 | 17.6 | 15.4 | 17.6 | 14.9 | 13.9 | 14.8 | 13.8 | 16.3 | 15.5 | 19.9 | 34.6 | 17.5 | Fluorescence enhancement (aggregate/native IgG) ([4]; Mannitol, 300 mM): 25.2 fold; Fluorescence enhancement (aggregate/native IgG) ([4]; Mannitol, 600 mM): 27.5 fold; Fluorescence enhancement (aggregate/native IgG) ([4]; Sodium Chloride, 10 mM): 16.0 fold; Fluorescence enhancement (aggregate/native IgG) ([4]; Sodium Chloride, 100 mM): 16.2 fold; Fluorescence enhancement (aggregate/native IgG) ([4]; Sodium Chloride, 1000 mM): 17.4 fold; Fluorescence enhancement (aggregate/native IgG) ([4]; Sorbitol, 100 mM): 20.0 fold; Fluorescence enhancement (aggregate/native IgG) ([4]; Sorbitol, 300 mM): 19.2 fold; Fluorescence enhancement (aggregate/native IgG) ([4]; Sorbitol, 600 mM): 29.3 fold; Fluorescence enhancement (aggregate/native IgG) ([4]; Trehalose, 100 mM): 18.9 fold; Fluorescence enhancement (aggregate/native IgG) ([4]; Trehalose, 300 mM): 20.1 fold; Fluorescence enhancement (aggregate/native IgG) ([4]; Trehalose, 600 mM): 30.4 fold; Fluorescence enhancement (aggregate/native IgG) ([4]; Tween 20, 0.01%): 8.5 fold; Fluorescence enhancement (aggregate/native IgG) ([4]; Tween 20, 0.2%): 3.4 fold; Fluorescence enhancement (aggregate/native IgG) ([4]; X100, 0.01%): 6.2 fold; Fluorescence enhancement (aggregate/native IgG) ([4]; X100, 0.2%): 3.4 fold; Fluorescence enhancement (aggregate/native IgG) ([4]; X100, 1%): 1.9 fold; Detection of BLG thermal shift (melting) peak [5]: able to detect BLG thermal shift peaks; Fluorescence enhancement with IgG aggregates relative to controls without IgG ([6]; aggregated IgG 0.033 mg/mL): significant fluorescence enhancement; Fluorescence enhancement with unfolded IgG monomer relative to controls without IgG ([6]; monomeric IgG 0.033 mg/mL): insignificant fluorescence enhancement
4 | – | – | – | – | NC(N)=O [urea] | – | – | – | – | – | – | – | – | – | – | – | – | – | – | – | – | IgG unfolded [7]: approximately 60%
